Where “and” joins values, the source holds several entries; their conditions need not be identical. Equal values may be shown once.
Columns and labels:
[1] = particularly in combination with Atorvastatin; cited from earlier work
CETP = target: T1, CETP (Homo sapiens, UniProt P11597); test: CETP in vitro assay (Amersham kit TRKQ7005; modified protocol in human plasma, [3H]CE-HDL transfer); format: biochemical; settings: for % Inhibition @ 1 μM / inhibition at 1 µM: 1 μM compound; for inhibition at 1 µM: read-out: % Inhibition @ 1 μM; for IC50: from plots of % control versus compound concentration
T1 construct: from tissue; host or cells: human plasma from normal volunteers
T1 sequence (P11597 18-493): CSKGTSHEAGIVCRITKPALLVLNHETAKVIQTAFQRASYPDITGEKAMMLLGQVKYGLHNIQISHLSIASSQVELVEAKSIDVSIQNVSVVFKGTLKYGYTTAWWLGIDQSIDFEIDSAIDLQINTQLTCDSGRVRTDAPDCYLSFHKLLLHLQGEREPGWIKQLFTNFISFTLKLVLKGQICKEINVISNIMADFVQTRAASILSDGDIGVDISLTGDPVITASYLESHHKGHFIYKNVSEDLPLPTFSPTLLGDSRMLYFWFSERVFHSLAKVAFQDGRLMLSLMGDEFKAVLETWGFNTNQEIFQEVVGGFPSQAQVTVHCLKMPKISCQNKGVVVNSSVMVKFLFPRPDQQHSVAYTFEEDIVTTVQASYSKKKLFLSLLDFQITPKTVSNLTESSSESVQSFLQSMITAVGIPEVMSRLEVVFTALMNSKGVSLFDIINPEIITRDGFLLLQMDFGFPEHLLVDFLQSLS
Outline: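 IC50 values were derived by plotting % of vehicle control against compound concentration. Transfer was quantified by counting supernatant radioactivity after Dextralip/MgCl2 precipitation. Compound, human plasma and [3H]CE-HDL (about 25 μg/ml, as added) were incubated 4 h or more at 37 °C, with a 4 °C plate as the non-specific blank.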

cholesterol-fed hamsters = test: CETP in vivo assay: lipid parameters in cholesterol-fed hamsters; settings: plasma, mean ± SEM, n = 8
Description: To determine the in vivo efficacy of a test compound, hamsters were first fed a moderately high cholesterol diet (Research Diets, D5012801) for two weeks before commencing treatment. The animals were orally gavaged with the vehicle (10% solutol, 5% ethanol, 85% D5W) and test compound for 5 days with the last dose being administered 2 hrs before sacrifice. Plasma was obtained and lipid parameters were measured.

rabbits = settings: 30 mg/kg; cited from earlier work
[2] = clinical studies; cited from earlier work
[3] = tested on: rabbits had severe hypercholesterolemia; settings: rabbits with severe hypercholesterolemia; cited from earlier work
[4] = 10 mg/kg oral gavage for 5 days
[5] = 30 mg/kg oral gavage for 5 days

In the case of `CCOC(=O)N1c2ccc(C(F)(F)F)cc2[C@@H](N(Cc2cc(C(F)(F)F)cc(C(F)(F)F)c2)C(=O)OC)C[C@H]1CC` [Torcetrapib], the “results in Phase II trials” value [1] is listed as “positive results in Phase II trials”.

For `O[C@@H](CN1c2cccc(-c3cccc(OC(F)(F)F)c3)c2CC[C@@H]1c1cccc(OC(F)(F)C(F)F)c1)C(F)(F)F` [Compound 78, (S)-1,1,1-trifluoro-3-((R)-2-(3-(1,1,2,2-tetrafluoroethoxy)phenyl)-5-(3-(trifluoromethoxy)phenyl)-3,4-dihydroquinolin-1 (2H)-yl)propan-2-ol], the “% Inhibition @ 1 μM” value (CETP) was 79%, the inhibition at 1 µM (CETP) was 85% and the IC50 (CETP) was 34 nM and 44 nM. The “HDL-C” value (cholesterol-fed hamsters; 3 mg/kg oral gavage for 5 days, last dose 2 hrs before sacrifice) was 96.2 ± 4.9 mg/dL, the HDL-C/LDL-C (cholesterol-fed hamsters; 3 mg/kg oral gavage for 5 days) was 3.1 ± 0.2 and the “LDL-C” value (cholesterol-fed hamsters; 3 mg/kg oral gavage for 5 days) was 31.6 ± 1.9 mg/dL. The “Total Cholesterol” value (cholesterol-fed hamsters; 3 mg/kg oral gavage for 5 days) was 149.3 ± 7.7 mg/dL, the “Triglycerides” value (cholesterol-fed hamsters; 3 mg/kg oral gavage for 5 days) was 217.7 ± 18.1 mg/dL and the “HDL-C” value (cholesterol-fed hamsters; [4]) was 117.9 ± 2.9 mg/dL. For the same compound, the HDL-C/LDL-C (cholesterol-fed hamsters; [4]) was 4.3 ± 0.3, the “LDL-C” value (cholesterol-fed hamsters; [4]) was 28.1 ± 1.8 mg/dL and the “Total Cholesterol” value (cholesterol-fed hamsters; [4]) was 178.5 ± 5.4 mg/dL. For the same compound, the “Triglycerides” value (cholesterol-fed hamsters; [4]) was 325.6 ± 24.3 mg/dL, the “HDL-C” value (cholesterol-fed hamsters; [5]) was 121.4 ± 2.5 mg/dL and the HDL-C/LDL-C (cholesterol-fed hamsters; [5]) was 4.6 ± 0.4. For the same compound, the “LDL-C” value (cholesterol-fed hamsters; [5]) was 27.9 ± 2.5 mg/dL, the “Total Cholesterol” value (cholesterol-fed hamsters; [5]) was 188.4 ± 9.2 mg/dL and the “Triglycerides” value (cholesterol-fed hamsters; [5]) was 350.8 ± 10.9 mg/dL.

In the case of `CCC(CC)CC1(C(=O)Nc2ccccc2SC(=O)C(C)C)CCCCC1` [JTT-705], the CETP activity (rabbits) is listed as “inhibited CETP activity”, the “increased HDL-C” value (rabbits) is listed as “+90%” and the reduced lesion size (rabbits) is listed as −70%. The “reduced non-HDL-C cholesterol” value (rabbits) was −50%, the HDL-C [2] was “raise HDL-C” and the LDL-C [2] was “modestly lower LDL-C”. For the same compound, the triglyceride levels [2] was “not alter triglyceride levels”, the lesion development [3] was “not efficacious in preventing lesion development” and the plasma triglycerides [3] was “significant elevations of plasma triglycerides”.

With `OC(CN1c2cccc(-c3cccc(F)c3)c2CCC1c1cccc(OC(F)(F)C(F)F)c1)C(F)(F)F` (stereo not drawn) [Compound 11, 1,1,1-Trifluoro-3-{5-(3-fluoro-phenyl)-2-[3-(1,1,2,2-tetrafluoro-ethoxy)-phenyl]-3,4-dihydro-2H-quinolin-1-yl}-propan-2-ol] the “% Inhibition @ 1 μM” value (CETP) was 101% and 99% and 79% and the IC50 (CETP) was 70 nM and 95 nM and 187 nM.

In the case of `CC(C)Oc1cccc(-c2cccc3c2CCC(c2cccc(OC(F)(F)C(F)F)c2)N3CC(O)C(F)(F)F)c1` (stereo not drawn) [Compound 68, 1,1,1-Trifluoro-3-{5-(3-isopropoxy-phenyl)-2-[3-(1,1,2,2-tetrafluoro-ethoxy)-phenyl]-3,4-dihydro-2H-quinolin-1-yl}-propan-2-ol], the “% Inhibition @ 1 μM” value (CETP) is reported as 49% and 61% and the IC50 (CETP) is reported as 345 nM.

With `COc1cccc(-c2cccc3c2CCC(c2cccc(OC(F)(F)C(F)F)c2)N3CC(O)C(F)(F)F)c1` (stereo not drawn) [Compound 72, 1,1,1-Trifluoro-3-{5-(3-methoxy-phenyl)-2-[3-(1,1,2,2-tetrafluoro-ethoxy)-phenyl]-3,4-dihydro-2H-quinolin-1-yl}-propan-2-ol] the “% Inhibition @ 1 μM” value (CETP) was 75% and 62% and the IC50 (CETP) was 160 nM and 93 nM.

In the case of `N#Cc1cccc(C2CCc3c(-c4cccc(OC(F)(F)F)c4)cccc3N2CC(O)C(F)(F)F)c1` (stereo not drawn) [Compound 28, 3-[1-(3,3,3-Trifluoro-2-hydroxy-propyl)-5-(3-trifluoromethoxy-phenyl)-1,2,3,4-tetrahydro-quinolin-2-yl]-benzonitrile], the “% Inhibition @ 1 μM” value (CETP) is reported as 25%.

In the case of `OC(CF)CN1c2cccc(-c3cccc(OC(F)(F)F)c3)c2CCC1c1cccc(OC(F)(F)F)c1` (stereo not drawn) [Compound 50, 1-[2,5-Bis-(3-trifluoromethoxy-phenyl)-3,4-dihydro-2H-quinolin-1-yl]-3-fluoro-propan-2-ol], the “% Inhibition @ 1 μM” value (CETP) is reported as 13%.

In the case of `OC(CN1c2cccc(-c3cccc(OC(F)(F)F)c3)c2CCC1c1cccc(Cl)c1)C(F)(F)F` (stereo not drawn) [Compound 29, 3-[2-(3-Chloro-phenyl)-5-(3-trifluoromethoxy-phenyl)-3,4-dihydro-2H-quinolin-1-yl]-1,1,1-trifluoro-propan-2-ol], the “% Inhibition @ 1 μM” value (CETP) is reported as 39% and the IC50 (CETP) is reported as 290 nM.

For `OC(CN1c2cccc(-c3cccnc3)c2CCC1c1cccc(OC(F)(F)C(F)F)c1)C(F)(F)F` (stereo not drawn) [Compound 76, 1,1,1-Trifluoro-3-{5-pyridin-3-yl-2-[3-(1,1,2,2-tetrafluoro-ethoxy)-phenyl]-3,4-dihydro-2H-quinolin-1-yl}-propan-2-ol], the “% Inhibition @ 1 μM” value (CETP) was 38% and the inhibition at 1 µM (CETP) was 57%.

For `OC(CN1c2cccc(-c3cccc(OC(F)(F)F)c3)c2CCC1c1cccc(OC(F)(F)C(F)F)c1)C(F)(F)F` (single isomer, unassigned) [Compound 1, 1,1,1-Trifluoro-3-[2-[3-(1,1,2,2-tetrafluoro-ethoxy)-phenyl]-5-(3-trifluoromethoxy-phenyl)-3,4-dihydro-2H-quinolin-1-yl]-propan-2-ol], the inhibition at 1 µM (CETP) was 100% and the IC50 (CETP) was 7 nM and 25 nM and 30 nM.

With `OC(CN1c2cccc(-c3cccc(OC(F)(F)F)c3)c2CCC1c1cccc(Cl)c1)C(F)(F)F` (stereo not drawn) [Compound 30, 3-[2-(3-Chloro-phenyl)-5-(3-trifluoromethoxy-phenyl)-3,4-dihydro-2H-quinolin-1-yl]-1,1,1-trifluoro-propan-2-ol] the “% Inhibition @ 1 μM” value (CETP) was 13%.

For `OC(CN1c2cccc(-c3cccs3)c2CCC1c1cccc(OC(F)(F)C(F)F)c1)C(F)(F)F` (stereo not drawn) [Compound 75, 1,1,1-Trifluoro-3-{2-[3-(1,1,2,2-tetrafluoro-ethoxy)-phenyl]-5-thiophen-2-yl-3,4-dihydro-2H-quinolin-1-yl}-propan-2-ol], the “% Inhibition @ 1 μM” value (CETP) was 39%.

In the case of `O=Cc1cccc(-c2cccc3c2CCC(c2cccc(OC(F)(F)C(F)F)c2)N3CC(O)C(F)(F)F)c1` (stereo not drawn) [Compound 63, 3-[2-[3-(1,1,2,2-Tetrafluoro-ethoxy)-phenyl]-1-(3,3,3-trifluoro-2-hydroxy-propyl)-1,2,3,4-tetrahydro-quinolin-5-yl]-benzaldehyde], the inhibition at 1 µM (CETP) is reported as 39%.

In the case of `C[C@@H](O)CN1c2cccc(-c3cccc(Cl)c3)c2CC[C@@H]1c1cccc(OC(F)(F)F)c1` [Compound 40], the “% Inhibition @ 1 μM” value (CETP) is reported as 32%, the inhibition at 1 µM (CETP) is reported as 37% and the IC50 (CETP) is reported as 150 nM.

With `C[C@@H](O)CN1c2cccc(-c3cccc(OC(F)(F)F)c3)c2CC[C@@H]1c1cccc(OC(F)(F)F)c1` [Compound 53] the “% Inhibition @ 1 μM” value (CETP) was 57% and 77% and 84% and the IC50 (CETP) was 90 nM and 199 nM and 85 nM.

With `C[C@H](O)CN1c2cccc(-c3cccc(OC(F)(F)F)c3)c2CC[C@H]1c1cccc(OC(F)(F)C(F)F)c1` [Compound 62] the inhibition at 1 µM (CETP) was 30%.
